Laboratory results reported in US11840528B2 (Hoffmann-La Roche Inc., priority 2018, dated 2023).
pKi: −log10 of the molar value.

Experiments:
h-GABA-A α5β3γ2 [1] = target: T1, h-GABA-A α5β3γ2 (Homo sapiens, UniProt P18507+P31644); experiment: Two-electrode voltage clamp electrophysiology in Xenopus laevis oocytes expressing GABAA receptors, modulation of GABA EC20 current; type: cell-based; parameters: host or cells: Xenopus laevis oocytes micro-injected with RNA transcripts of the subunits; conditions: Table 1; for Efficacy (GABA) %: % modulation of GABA EC20 = 100*(Fold increase-1); for Fold increase h-GABA-A α5β3γ2 oocyte: test compound at approx. 30 fold its Ki, GABA at EC20
Procedure, shortened: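 Modulation is reported as % of the GABA EC20 current, calculated as 100*(Fold increase−1) from the peak ratio between a second GABA response carrying compound (applied at roughly 30-fold Ki) and a preceding control response. Oocytes expressing human α5β3γ2 were clamped at −80 mV at room temperature, 3–5 days after injection.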

h-GABA-A α5β3γ2 [2] = target: T1, h-GABA-A α5β3γ2; experiment: [3H]flumazenil competition binding assay, membranes of HEK293 cells expressing GABAA receptors; conditions: displacement of [3H]-Flumazenil 0.5 nM, HEK293 cells expressing human receptors, mean of two determinations; Table 1
Procedure, shortened: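 Receptor source: human α5β3γ2 transiently transfected into HEK293 cells, membranes in pH 7.5 Krebs-tris. Filtration through GF/C, then scintillation counting.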

Efficacy (GABA) % (h-GABA-A α5β3γ2 [1]) [%] | Fold increase h-GABA-A α5β3γ2 oocyte (h-GABA-A α5β3γ2 [1]) | pKi (h-GABA-A α5β3γ2 [2]) | SMILES
215 | 3.15 | 7.56 | Cc1onc(-c2ccc(Cl)nc2)c1Cn1ncc(N2CCN3C(=O)CCC3C2)cc1=O (stereo not drawn) [Example 223, 2-(1-((3-(6-chloropyridin-3-yl)-5-methylisoxazol-4-yl)methyl)-6-oxo-1,6-dihydropyridazin-4-yl)hexahydropyrrolo[1,2-a]pyrazin-6(2H)-one]
77 | 1.77 | 8.55 | Cc1ccc(-c2noc(C)c2Cn2ncc(N3CC4(CCCCO4)C3)cc2=O)nn1 [Example 235, 2-((5-methyl-3-(6-methylpyridazin-3-yl)isoxazol-4-yl)methyl)-5-(5-oxa-2-azaspiro[3.5]nonan-2-yl)pyridazin-3(2H)-one]
132 | 2.32 | 7.89 | Cc1ccc(-c2noc(C)c2Cn2ncc(NC3CN(C4CC4)C3)cc2=O)cn1 [Example 96, 5-((1-cyclopropylazetidin-3-yl)amino)-2-((5-methyl-3-(6-methylpyridin-3-yl)isoxazol-4-yl)methyl)pyridazin-3(2H)-one]
136 | 2.36 | 8.54 | Cc1ccc(-c2noc(C)c2Cn2ncc(N3CC(Oc4ccnc(Cl)c4)C3)cc2=O)nn1 [Example 236, 5-[3-[(2-chloro-4-pyridyl)oxy]azetidin-1-yl]-2-[[5-methyl-3-(6-methylpyridazin-3-yl)isoxazol-4-yl]methyl]pyridazin-3-one]
159 | 2.59 | 7.75 | Cc1onc(-c2ccc(Cl)nc2)c1Cn1ncc(N2CCC3(CC2)CC(F)CCO3)cc1=O (single isomer, unassigned) [Example 331]
158 | 2.58 | 8.57 | Cc1ccc(-c2noc(C)c2Cn2ncc(N3CC[C@@H](C)C3)cc2=O)cn1 [Example 178, 2-[[5-methyl-3-(6-methyl-3-pyridyl)isoxazol-4-yl]methyl]-5-[(3R)-3-methylpyrrolidin-1-yl]pyridazin-3-one]
118 | 2.18 | 7.76 | Cc1ccc(-c2noc(C)c2Cn2ncc(N3CC4(CCCCC4)C3)cc2=O)cn1 [Example 195]
147 | 2.47 | 8.24 | CO[C@H]1COC2(C1)CN(c1cnn(Cc3c(-c4ccc(C(F)(F)F)nc4)noc3C)c(=O)c1)C2 [Example 237, 5-[(7R)-7-methoxy-5-oxa-2-azaspiro[3.4]octan-2-yl]-2-[[5-methyl-3-[6-(trifluoromethyl)-3-pyridyl]isoxazol-4-yl]methyl]pyridazin-3-one]
145 | 2.45 | 8.07 | Cc1ccc(-c2noc(C)c2Cn2ncc(N3CC[C@H](O)C3)cc2=O)cn1 [Example 4, 5-[(3S)-3-hydroxypyrrolidin-1-yl]-2-[[5-methyl-3-(6-methyl-3-pyridyl)isoxazol-4-yl]methyl]pyridazin-3-one]
168 | 2.68 | 7.58 | CCOC(=O)C1CCN(c2cnn(Cc3c(-c4ccc(C)nc4)noc3C)c(=O)c2)CC1 [Example 8, ethyl 1-(1-((5-methyl-3-(6-methylpyridin-3-yl)-1,2-oxazol-4-yl)methyl)-6-oxopyridazin-4-yl)piperidine-4-carboxylate]
82 | 1.82 | 7.47 | Cc1onc(-c2ccc(Cl)nc2)c1Cn1ncc(N2CC3(CCCCO3)C2)cc1=O [Example 233, 2-((3-(6-chloropyridin-3-yl)-5-methylisoxazol-4-yl)methyl)-5-(5-oxa-2-azaspiro[3.5]nonan-2-yl)pyridazin-3(2H)-one]
140 | 2.4 | 8.40 | Cc1ccc(-c2noc(C)c2Cn2ncc(N3CC4(CC(OC(F)F)C4)C3)cc2=O)nn1 [Example 315, 5-[6-(difluoromethoxy)-2-azaspiro[3.3]heptan-2-yl]-2-[[5-methyl-3-(6-methylpyridazin-3-yl)isoxazol-4-yl]methyl]pyridazin-3-one]
145 | 2.45 | 9.22 | Cc1ccc(-c2noc(C)c2Cn2ncc(N3CCOC(C)(C)C3)cc2=O)cn1 [Example 6, 5-(2,2-dimethylmorpholin-4-yl)-2-((5-methyl-3-(6-methylpyridin-3-yl)-1,2-oxazol-4-yl)methyl)pyridazin-3-one]
132 | 2.32 | 9.40 | Cc1ccc(-c2noc(C)c2Cn2ncc(N3CCNC4(CC4)C3)cc2=O)cn1 [Example 74, 5-(4,7-diazaspiro[2.5]octan-7-yl)-2-[[5-methyl-3-(6-methyl-3-pyridyl)isoxazol-4-yl]methyl]pyridazin-3-one]
134 | 2.34 | 7.84 | CCOC1CN(c2cnn(Cc3c(-c4ccc(C)nc4)noc3C)c(=O)c2)C1 [Example 99, 5-(3-ethoxyazetidin-1-yl)-2-[[5-methyl-3-(6-methyl-3-pyridyl)isoxazol-4-yl]methyl]pyridazin-3-one]
87 | 1.87 | 7.92 | Cc1onc(-c2ccc(Cl)cn2)c1Cn1ncc(N2CC3(C2)CN(C2CC2)C3)cc1=O [Example 86, 2-[[3-(5-chloro-2-pyridyl)-5-methyl-isoxazol-4-yl]methyl]-5-(2-cyclopropyl-2,6-diazaspiro[3.3]heptan-6-yl)pyridazin-3-one]
105 | 2.05 | 8.04 | Cc1ccc(-c2noc(C)c2Cn2ncc(N3CC(Oc4ccc(Cl)nc4)C3)cc2=O)cn1 [Example 138, 5-[3-[(6-chloro-3-pyridyl)oxy]azetidin-1-yl]-2-[[5-methyl-3-(6-methyl-3-pyridyl)isoxazol-4-yl]methyl]pyridazin-3-one]
152 | 2.52 | 7.97 | CO[C@@H]1CN(c2cnn(Cc3c(-c4ccc(C)nc4)noc3C)c(=O)c2)[C@@H]1C [Example 194, 5-[(2R,3R)-3-methoxy-2-methyl-azetidin-1-yl]-2-[[5-methyl-3-(6-methyl-3-pyridyl)isoxazol-4-yl]methyl]pyridazin-3-one]
104 | 2.04 | 7.94 | Cc1ccc(-c2noc(C)c2Cn2ncc(-c3ccnc(C(F)(F)F)c3)cc2=O)cn1 [Example 108, 2-((5-methyl-3-(6-methylpyridin-3-yl)isoxazol-4-yl)methyl)-5-(2-(trifluoromethyl)pyridin-4-yl)pyridazin-3(2H)-one]
50 | 1.5 | 7.76 | Cc1ccc(-c2noc(C)c2Cn2ncc(-c3ccc(C(F)(F)F)cc3)cc2=O)cn1 [Example 83]
77 | 1.77 | 8.42 | Cc1ccc(-c2noc(C)c2Cn2ncc(N3CC4(CC(F)CCO4)C3)cc2=O)nn1 (single isomer, unassigned) [Example 287]
95 | 1.95 | 7.89 | Cc1ccc(-c2noc(C)c2Cn2ncc(N3CCC4(CCOCC4)CC3)cc2=O)cn1 [Example 226, 2-((5-methyl-3-(6-methylpyridin-3-yl)isoxazol-4-yl)methyl)-5-(3-oxa-9-azaspiro[5.5]undecan-9-yl)pyridazin-3(2H)-one]
131 | 2.31 | 8.74 | CCO[C@H]1CN(c2cnn(Cc3c(-c4ccc(C)nc4)noc3C)c(=O)c2)[C@H]1C [Example 198, 5-[(2S,3S)-3-ethoxy-2-methyl-azetidin-1-yl]-2-[[5-methyl-3-(6-methyl-3-pyridyl)isoxazol-4-yl]methyl]pyridazin-3-one]
121 | 2.21 | 7.58 | Cc1onc(-c2ccc(C(F)(F)F)nc2)c1Cn1ncc(N2CCN(C3CC3)CC2)cc1=O [Example 66, 5-(4-cyclopropylpiperazin-1-yl)-2-[[5-methyl-3-[6-(trifluoromethyl)-3-pyridyl]isoxazol-4-yl]methyl]pyridazin-3-one]
